Laboratory results published in patent US12012404B2, “Pyrimidoheterocyclic compounds and application thereof” (D3 BIO (WUXI) CO., LTD., priority 2020, dated 2024).
Read-outs that look alike come from different tables or passages of the source.

Key:
[1] = In vitro stability in liver microsomes, SD rats; format: in vitro ADME; conditions: 0.5 mg/mL
Description: (§1) Purpose of the assay: Metabolic stabilities of the assay compounds in liver microsomes of CD-1 mice, SD rats, beagle dogs, cynomolgus monkeys, and human were assayed, respectively.
(§2) Procedure of the assay: Two 96-well incubation plates were prepared and named T60 incubation plate and NCF60 incubation plate, respectively. 445 μL of microsomal working solutions (liver microsomal protein concentration of 0.56 mg/mL) were added to the T60 incubation plate and the NCF60 incubation plate, respectively, and then the above incubation plates were pre-incubated in a 37° C. water bath for about 10 minutes.
(§3) After the pre-incubation, 5 μL of working solutions of the assay sample or the control compound were added to the T60 incubation plate and the NCF60 incubation plate, respectively, and the mixture was mixed well. 50 μL of potassium phosphate buffer was added to each well of the NCF60 incubation plate to initiate the reaction. 180 μL of stop solution (200 ng/mL tolbutamide and 200 ng/mL labetalol in acetonitrile) and 6 uL of NADPH regeneration system working solution were added to the T0 stop plate, and 54 μL of sample was transferred from T60 incubation plate to T0 stop plate (generation of TO sample). The reaction was initiated by adding 44 μL of NADPH regeneration system working solution to each well of the T60 incubation plate. Only 54 μL of microsome working solution, 6 uL of NADPH regeneration system working solution and 180 μL of stop solution were added to the Blank plate. Therefore, in samples of the assay compound or the control compound, the final reaction concentration of compound, testosterone, diclofenac and propafenone was 1 μM, the concentration of liver microsomes was 0.5 mg/mL, and the final reaction concentrations of DMSO and acetonitrile in the reaction system were 0.01% (v/v) and 0.99% (v/v), respectively.
(§4) After an appropriate time (e.g., 5, 15, 30, 45 and 60 minutes) of incubation, 180 μL of stop solutions (200 ng/mL tolbutamide and 200 ng/mL labetalol in acetonitrile) were added to the sample wells of each stop plate, respectively. 60 μL of sample was removed from the T60 incubation plate to stop the reaction. All sample plates were shaken well and then centrifuged at 3220×g for 20 minutes. Then 80 μL of supernatant was taken out from each well, and diluted in 240 μL of pure water for liquid chromatography-tandem mass spectrometry analysis. All samples were injected and analyzed by liquid chromatography-tandem mass spectrometry.

[2] = In vitro stability in liver microsomes, beagle dogs; format: in vitro ADME; conditions: 0.5 mg/mL
Description: as §1, §2, §3, §4

[3] = Metabolic stability in hepatocytes, human; format: in vitro ADME
Description: Purpose of the assay: Metabolic stabilities of assay compounds in hepatocytes of CD-1 mice, SD rats, beagle dogs, cynomolgus monkeys, and human were assayed, respectively.
Procedure of the assay: Several 96-well sample precipitation plates were prepared and named T0, T15, T30, T60, T90, T120, TO-MC, T120-MC and blank substrates, respectively. The recovery medium and incubation medium were taken out in advance and placed in a 37° C. water bath for pre-heating. Cryopreserved hepatocytes were removed from the liquid nitrogen tank and immediately immersed in a 37° C. water bath (approximately 90 seconds). After the cryopreserved hepatocytes had thawed and loosened, they were poured into a centrifuge tube containing 40 mL of recovery medium, and the tube was gently inverted to allow the cells to be resuspended in the recovery medium. The cells were centrifuged at 100×g at room temperature for 5 min, and the supernatant was removed. The hepatocytes were resuspended in an appropriate volume of incubation medium, and the cell viability was calculated by Trypan Blue staining method. 198 μL of hepatocyte suspension (0.51×10^6 cells/mL) was added to the preheated incubation plate. For the culture medium control group, 198 μL of hepatocyte-free incubation medium was added to T0-MC and T120-MC incubation plate. All incubation plates were pre-incubated in a 37° C. incubator for 10 minutes. Then 2 μL of working solutions of the assay sample and the control compound were added, respectively, and the mixture was mixed well. The incubation plate was immediately put into the shaker in the incubator, and the reaction was initiated while starting the timer. For each time point of each compound, 2 duplicate samples were prepared. The incubation conditions were 37° C., saturated humidity, and 5% CO2. In the assay system, the final concentration of the assay sample was 1 μM, the final concentration of the control sample was 3 μM, the final concentration of hepatocytes was 0.5×10^6 cells/mL, and the final concentration of the total organic solvent was 0.96%, of which the final concentration of DMSO was 0.1%. At the end of the incubation for the corresponding time point, the incubation plate was taken out, and 25 μL of a mixture of compound and control compound with cells was added to the sample plate containing 125 μL of stop solution (200 ng/mL tolbutamide and labetalol in acetonitrile). For the Blank sample plate, 25 μL of hepatocyte-free incubation medium was added directly. After sealing, all sample plates were shaken on a shaker at 600 rpm for 10 minutes, and then centrifuged at 3220×g for 20 minutes. Supernatants of the assay sample and the control sample were diluted with ultrapure water at a ratio of 1:3. All samples were mixed well and analyzed by LC/MS/MS.

[4] = system: plasma protein of cynomolgus monkeys; assay: Protein binding rate by equilibrium dialysis, cynomolgus monkeys plasma; format: in vitro ADME; conditions: 2 μM, dialysis 4 hours
Description: Purpose of the assay: Protein binding rate of the assay compounds in plasma of CD-1 mice, SD rats, beagle dogs, cynomolgus monkeys and human was determined by equilibrium dialysis.
Procedure of the assay: Plasma samples with a compound concentration of 2 μM were prepared using plasma of the above five species, placed in a 96-well equilibrium dialysis device, and dialyzed with phosphate buffer solution at 37±1° C. for 4 hours. Warfarin was used as the control compound in this assay. The concentrations of the assay compounds in plasma and dialysis buffer were determined by LC-MS/MS method.

[5] = Pharmacokinetics by oral administration and intravenous injection in SD rats; format: in vivo; conditions: for AUCu: AUC0-last × PPB(Unbound %); for Peak concentration, Cmax, u: Cmax × PPB(Unbound %); for Cmax: read-out: Peak concentration, Cmax; for Vd: SD, iv, 2 mg/kg
Description: 1) Assay on the Pharmacokinetics of the Assay Compounds by Oral Administration and Intravenous Injection in SD Rats
The assay compound was mixed with […] (10% hydroxypropyl-β-cyclodextrin) solution. The mixture was vortexed and sonicated to prepare a 1 mg/mL clear solution, which was filtered through a microporous membrane for later use. Male SD rats aged 7 to 10 weeks were selected, and administered candidate compound solutions intravenously or orally. Whole blood was collected for a certain period of time, and prepared to obtain plasma. Drug concentration was analyzed by LC-MS/MS method, and pharmacokinetic parameters were calculated by Phoenix WinNonlin software (Pharsight, USA).

[6] = intravenous injection, 2.0 mg/kg
[7] = oral, 9.7 mg/kg (8B), 9.8 mg/kg (17)
[8] = male, rat, plasma, oral, 9.7 mg/kg (8B), 9.8 mg/kg (17)

Q: For `C=C(F)C(=O)N1CCN(c2nc(OCC3CCCN3C)nc3c2COC(c2c(F)c(N)cc(C)c2C(F)(F)F)C3)CC1CC#N.Cl` (single isomer, unassigned) [Compound 8B hydrochloride], which “CLint(liver)” value ([1]; 1 μM) is on record?
A: <17.3 mL/min/kg

Q: What about the CLint(mic) ([1]; 1 μM) of the same molecule?
A: < 9.6 µL/min/mg

Q: And the T1/2 ([1]; 1 μM)?
A: >2.42 h

Q: What about the “CLint(liver)” value ([2]; 1 μM) of the same molecule?
A: <13.8 mL/min/kg

Q: And the CLint(mic) ([2]; 1 μM)?
A: < 9.6 µL/min/mg

Q: What about the T1/2 ([2]; 1 μM) of the same molecule?
A: >2.42 h

Q: What about the “CLint(hep)” value ([3]; 1 μM) of the same molecule?
A: 6.9 μL/min/10^6

Q: What about the “CLint(liver)” value ([3]; 1 μM) of the same molecule?
A: 19.3 mL/min/kg

Q: And the T1/2 ([3]; 1 μM)?
A: 3.325 h

Q: And the Protein unbound rate [4]?
A: 23.9

Q: What about the AUC0-last [5, 6] of the same molecule?
A: 0.544 µM·h

Q: What about the “Apparent volume of distribution, Vdss” value [5, 6] of the same molecule?
A: 17.9 L/kg

Q: And the “Clearance rate, CL” value [5, 6]?
A: 85.2 mL/min/kg

Q: And the “Half-life period, T1/2” value [5, 6]?
A: 2.8 h

Q: What about the AUCu [5, 6] of the same molecule?
A: 0.0533 µM·h

Q: And the “Apparent volume of distribution, Vdss, u” value ([5]; intravenous injection, 2.0 mg/kg, Vdss/PPB(Unbound %))?
A: 203 L/kg

Q: And the AUC0-last [5, 7]?
A: 1.211 µM·h

Q: What about the “Bioavailability F” value [5, 7] of the same molecule?
A: 44.5%

Q: What about the “Time-to-peak, Tmax” value [5, 7] of the same molecule?
A: 1.5 h

Q: What about the AUCu [5, 7] of the same molecule?
A: 0.119 µM·h

Q: What about the “Peak concentration, Cmax, u” value [5, 7] of the same molecule?
A: 21.3 nM

Q: And the Cmax [5, 7]?
A: 218 nM

Q: With `C=C(F)C(=O)N1CCN(c2nc(OC[C@@]34CCCN3C[C@H](F)C4)nc3c2COC(c2c(F)c(N)cc(C)c2C(F)(F)F)C3)C[C@@H]1CC#N` (some centres unmarked) [Compound 17] as the molecule, how does the CLint(mic) ([1]; 1 μM) read?
A: 60.2 µL/min/mg

Q: And the CLint scaled at 1 μM ([1]; rat)?
A: 108 mL/min/kg

Q: And the half-life at 1 μM ([1]; rat)?
A: 0.383 h

Q: And the CLint(mic) ([2]; 1 μM)?
A: < 9.6 µL/min/mg

Q: What about the CLint scaled at 1 μM ([2]; dog) of the same molecule?
A: < 13.8 mL/min/kg

Q: And the half-life at 1 μM ([2]; dog)?
A: > 2.42 h

Q: What about the “CLint(hep)” value ([3]; 1 μM) of the same molecule?
A: 13.9 μL/min/10^6

Q: And the half-life at 1 μM ([3]; cryopreserved hepatocytes)?
A: 1.66 h

Q: What about the CLint scaled at 1 μM ([3]; cryopreserved hepatocytes, read-out: CLint(liver)) of the same molecule?
A: 38.7 mL/min/kg

Q: What about the Protein unbound rate [4] of the same molecule?
A: 7.8

Q: What about the AUCu [5, 6] of the same molecule?
A: 0.0313 µM·h

Q: What about the Vd ([5]; male, rat, plasma, intravenous injection, 2.0 mg/kg, Vdss/PPB(Unbound %), read-out: Apparent volume of distribution, Vdss, u) of the same molecule?
A: 221 L/kg

Q: What about the Vd ([5]; male, rat, plasma, intravenous injection, 2.0 mg/kg, read-out: Apparent volume of distribution, Vdss) of the same molecule?
A: 10.6 L/kg

Q: What about the AUC(0-t) ([5]; male, rat, plasma, intravenous injection, 2.0 mg/kg) of the same molecule?
A: 0.653 µM·h

Q: And the clearance ([5]; male, rat, plasma, intravenous injection, 2.0 mg/kg, read-out: Clearance rate, CL)?
A: 71.5 mL/min/kg

Q: And the half-life ([5]; male, rat, plasma, intravenous injection, 2.0 mg/kg, read-out: Half-life period, T1/2 (converted))?
A: 1.9 h

Q: And the AUC(0-t) [5, 8]?
A: 0.995 µM·h

Q: And the bioavailability ([5]; male, rat, plasma, oral, 9.7 mg/kg (8B), 9.8 mg/kg (17), read-out: Bioavailability F)?
A: 30.5%

Q: And the Cmax [5, 8]?
A: 220 nM

Q: What about the Tmax ([5]; male, rat, plasma, oral, 9.7 mg/kg (8B), 9.8 mg/kg (17), read-out: Time-to-peak, Tmax) of the same molecule?
A: 1.5 h

Q: What about the AUCu [5, 7] of the same molecule?
A: 0.0478 µM·h

Q: And the “Peak concentration, Cmax, u” value [5, 7]?
A: 10.6 nM
